Experimental findings from a melting point compilation (Tetko et al.; mined from patent text by program, amines drawn as free bases though some values may be those of a salt) are described below.

Each structure is given as a SMILES string.

For `CN(CCNC(=O)c1nc(Cl)c(N)nc1N)CCC(=O)NCCN`, the melting point fell in the range of 140 to 142 °C.

`CCSc1cc(C)nc(SCC)c1NC(=O)CCCSc1nc2cccc(C(F)(F)F)c2o1` displayed a melting point of 148 to 150 °C.

On to `c1ccc(-c2cccc(-c3nc4c5ccccc5ccn4n3)c2)cc1`, for which the melting point fell in the range of 167 to 169 °C.

Take `Clc1ccc(CO[C@H]2CO[C@@H](c3ccccc3)OC2)cc1Cl`: the melting point was 77 to 78 °C.

Take `COCOc1ccc(C=O)c(OCc2ccc(Cl)cc2Cl)c1C`: the melting point is 128 °C.

On to `COc1cccc(OCCCN2CCC(C(O)(c3ccc(F)cc3)c3ccc(F)cc3)CC2)c1`, for which the melting point lay in the range of 107 to 108 °C.

For the molecule `Cc1cc(C(N)=O)ncc1C(SCCC=C(F)F)c1c(F)ccc(F)c1F` (centres undefined), the melting point lay within 97 to 98 °C.

As to `CC(C)C(=O)NC1CCc2c(c3cc(Br)ccc3n2Cc2cccc(F)c2)C1` (centres undefined), the melting point lay in the range of 177 to 179 °C.

The molecule `CSc1ccc(C(=O)Cc2cccc(F)c2)cc1` showed a melting point of 94.5 to 95.5 °C.

In turn, `CC(C)(C)OC(=O)N1CC2CC1C(=O)S2` (centres undefined) showed a melting point of 91 °C.

With `O=C(c1ccco1)N1CCN(c2cc(-c3ccc(F)cc3)c3c(n2)CCC3)CC1`, the melting point lay within 165 to 166 °C.

In turn, `COc1ccc(N2CCN(c3ccc(N)cn3)CC2)cc1` gave a melting point of 134 to 135 °C.

The molecule `CC(=O)NC[C@H]1CN(c2ccc3c(c2)CCC(C)N3C(=O)OCc2ccccc2)C(=O)O1` (some centres undefined) showed a melting point of 126 to 129 °C.

For `CN(C)C1CCN(c2nc(N3CCOCC3)c3ncnc(N(CC(=O)O)Cc4ccccc4)c3n2)CC1`, the melting point lay within 151 to 155 °C.

Molecule `N=C(O[C@@H]1CCCC=C1Cl)C(Cl)(Cl)Cl` showed a melting point of 78 to 79 °C.

Molecule `O=C(c1n[nH]c2ccccc12)N1CCCCC1` yielded a melting point of 201 to 203 °C.

The molecule `CCn1nc(-c2ccc(F)cc2)c(-c2ccncc2)c1C(=O)N(C)Cc1ccccc1` returned a melting point of 148 to 149 °C.

In turn, `CCCCCCCCCCCCCCCCCC(=O)NCCOC(=O)CCc1cc(C(C)(C)C)c(O)c(C(C)(C)C)c1` had a melting point of 52 to 55 °C.

For `Cc1cc(NCCO)c(N)c([N+](=O)[O-])c1`, the melting point came out at 166 °C.

For `COc1ccc2ncc(C#N)c(Nc3ccc(Cl)cc3F)c2c1`, the melting point is more than 250 °C.

The molecule `O=C1CCc2cc(Cl)cc(Cl)c2C1` yielded a melting point of 90 to 92 °C.

Molecule `Cc1cccc(C)c1NC(=O)c1ccc(S(C)(=O)=O)cc1` displayed a melting point of 164 to 166 °C.

The molecule `O=C(O)c1cc2ccc(OCCc3ccccc3)cc2oc1=O` showed a melting point of 150 to 151 °C.

Turning to `COc1cc(Cc2cnc(N)nc2N)cc(-c2ccc(N(C)C)cc2)c1OC`, the melting point amounted to 230 °C.

Regarding `CCC1(CC)c2cc(Br)ccc2-c2ccc(I)cc21`, the melting point fell in the range of 162 to 164 °C.

In turn, `CC(C)(C)OC(=O)N1CCC(c2nc3cc(-c4ccc(-n5cnnn5)c(F)c4)ccc3o2)CC1` yielded a melting point of 154 to 159 °C.

With `CCC(COCc1cccc(Cl)c1)n1cnc2c(N)nc3ccccc3c21` (centres undefined), the melting point lay within 60 to 62 °C.

Consider `CC(C)Oc1cc(N2CCC(C(F)(F)F)CC2=O)c(F)cc1Cl` (centres undefined), for which the melting point lay in the range of 98 to 102 °C.

Turning to `CC#CCOc1cc(C=O)ccc1OC`, the melting point is 81 to 83 °C.

For `O=C(O)CON=c1c2nccc3cccc(c32)n2cccc12`, the melting point is 212 °C.

`CCOC(=O)c1cc(C)c(C(=O)OCC)n1C` had a melting point of 48 to 48.5 °C.

As to `CN(C)C(=O)C1Cc2ccc(N)cc2NC1=O` (centres undefined), the melting point fell in the range of 219 to 223 °C.

The molecule `COC(=O)c1cc(C(=O)c2c(C)c(-c3cccc(OCC(=O)OC(C)(C)C)c3)c3ccccn23)ccc1N` yielded a melting point of 81 °C.

Molecule `O=C(CN1C(=O)C2(COc3cc(F)c(F)cc32)c2ccccc21)Nc1ccccc1F` (centres undefined) yielded a melting point of 97 to 100 °C.

Molecule `CON=C(C1=NCCO1)c1ccccc1OCc1ccc(Cl)cc1` yielded a melting point of 97 to 100 °C.

As for `COC(=N)c1ccc(-c2cc3ncn([C@H](C)[C@](O)(Cn4cncn4)c4ccc(F)cc4F)c(=O)c3s2)cc1`, the melting point was in the range of 194 to 201 °C.

The molecule `O=C(Nc1cccc(C(=O)Nc2ccccc2)c1)Nc1nnc(-c2cc(Cl)cc(Cl)c2O)s1` yielded a melting point of 298 °C.

Regarding `COc1cc(C)c(C=C2COCC(=Cc3cc(C)c(OC)cc3C)C2=O)cc1C`, the melting point lay within 182 to 184 °C.

`COc1ccc(CCc2oc3ccc(C#N)cc3c2C(C)=O)cc1`: the melting point fell in the range of 130 to 131 °C.

Consider `CN(C)C(N)=NC(=O)C(Br)c1c(Cl)cccc1Cl` (centres undefined), for which the melting point lay within 142 to 145 °C.

Molecule `O=C(O)c1ccc2c(c1)S(=O)(=O)c1ccc(Cl)cc1C=C2` registered a melting point of 276 to 278 °C.

Molecule `CCOC(=O)Cc1cnc(N)s1` gave a melting point of 101 °C.

The molecule `O=C(NC1CCC(O)CC1)NC12CC3CC(CC(C3)C1)C2` (centres undefined) returned a melting point of 205 °C.

`O=C(O)/C=C/C(=O)/C=C/c1ccc(F)cc1`: the melting point was 160 to 162 °C.

The molecule `CC1=NC(=Cc2cccc(-c3ccc(Cl)cc3)c2)C(=O)O1` showed a melting point of 150 °C.

`O=C(O)C(Cc1ccccc1)Oc1ccc2cc(-c3csc(-c4ccccc4)n3)ccc2c1Br` (centres undefined) had a melting point of 220 to 224 °C.

In turn, `COCCCNC(=O)NC(=O)C(C#N)=NO` returned a melting point of 126 to 127 °C.

Regarding `CN1C(=O)CCC2(C)c3ccc(C(=O)c4ccccc4Cl)cc3CCC12` (centres undefined), the melting point was in the range of 105 to 115 °C.

The molecule `OCCCC#Cc1ccc2ccccc2c1` returned a melting point of 37 to 38 °C.

Turning to `CC1(C)CCC(C)(C)c2cc(C(O)C3CCCCC3C(=O)O)ccc21` (centres undefined), the melting point is 186 °C.

With `C=CCNC1=NS(=O)(=O)c2sc(Cl)cc2N1`, the melting point is 217 to 221 °C.

Turning to `COc1ccc(S(=O)(=O)Oc2ccn3nc(-c4ccccc4)c(-c4ccc(=O)n(C(C)C)n4)c3c2)cc1`, the melting point lay within 155 to 157 °C.

`O=C(COc1cc(F)ccc1C(=O)NCc1cccc([N+](=O)[O-])c1)OC1CCCCC1`: the melting point fell in the range of 87 to 90 °C.

As to `COc1ccc(-c2cc(C#N)c3cc(O)ccc3c2)cc1F`, the melting point is 214 to 216 °C.

As to `O=c1c2c(Cc3ccsc3)n[nH]c2c2cccnc2n1-c1cccc(OC(F)(F)F)c1`, the melting point is 247 to 251 °C.

`Cn1c(=O)sc2ccc(Cl)cc21`: the melting point is 106 to 108 °C.

Molecule `CCC(C)(C)N1CCN(C(=O)Nc2ccc3[nH]c(C(=O)N4CCN(c5ncccc5NC(C)C)CC4)cc3c2)CC1` came in with a melting point of 240 to 242 °C.

As to `CCC(=O)NCCC1c2cc(OC)ccc2-c2ccc3c(c21)OCO3` (centres undefined), the melting point is 145 to 147 °C.

In turn, `COc1ccc2c(=O)c3ccc(O)c(OC)c3oc2c1` gave a melting point of 120 to 121 °C.

For the molecule `O=[N+]([O-])c1ccc(Oc2ccccc2-c2ccccc2Oc2ccc([N+](=O)[O-])cc2)cc1`, the melting point amounted to 158 °C.

`CCOc1cc(-n2c(=O)cc(C(F)(F)F)n(C)c2=O)c(F)cc1Br`: the melting point is 128 °C.

As for `O=C(Nc1ccc(F)cc1)NN1CC=CCC1`, the melting point is 156 to 157 °C.

In turn, `CCOC(=O)CCCSc1nnc(S)s1` had a melting point of 107 to 108 °C.

As for `CN(C)CCNc1ccc(Cl)nn1`, the melting point fell in the range of 86 to 92 °C.

In the case of `CCCCCCCCCCCCCCCCOC[C@@H]1OCC[C@H]1OP(=O)([O-])OCC[N+](C)(C)C` (relative stereo), the melting point lay in the range of 213 to 223 °C.

As for `Nc1nc(N2CCOCC2)nc2ccccc12`, the melting point is 216 to 219 °C.

`CCCC12CCC(=O)C=C1c1c(cc(CCC(=O)O)c(Cl)c1Cl)C2` (centres undefined) gave a melting point of 201 to 203 °C.

Consider `CCc1nc2c(C)cc(C)nc2n1Cc1ccc(C(c2ccccc2)C(C(=O)O)C(=O)O)cc1` (centres undefined), for which the melting point was in the range of 137 to 142 °C.

As for `CC(=O)Nc1cc(F)cc2c1OCCC21SC(=O)NC1=O` (centres undefined), the melting point is 278 to 280 °C.

The molecule `Nc1c(-c2cc(Cl)ccc2O)c2ccccc2[nH]c1=O` came in with a melting point of 265 to 268 °C.

As for `N#CCC(=O)Nc1ccc(OCc2cccc(F)c2)cc1`, the melting point is 164 to 166 °C.

For the molecule `CC(C)(NCC(F)(F)CN)C(CCn1ccnc1[N+](=O)[O-])=NO`, the melting point was in the range of 112 to 114 °C.

As for `NS(=O)(=O)c1ccc(NN=C2C(=O)Nc3ccc(C(=O)NCCn4ccnc4)cc32)cc1`, the melting point is more than 230 °C.

For the molecule `C[C@@H](N1CC(=O)N(c2ccc(OCC(F)(F)C(F)F)cc2)CC1=O)[C@@]1(c2ccc(F)cc2F)CO1`, the melting point lay within 155 to 156 °C.

Regarding `CC(=O)OC1CSC(Sc2ccc3ccccc3c2)C(OC(C)=O)C1OC(C)=O` (centres undefined), the melting point is 151 °C.

`CCCCCCCCCOP(=O)(CNC(=O)Nc1c(C(C)C)cccc1C(C)C)OCC` (centres undefined) displayed a melting point of 66 to 70 °C.

The molecule `CCc1noc(-c2cn(-c3ccc(Oc4ccccc4)cc3)cn2)n1` gave a melting point of 172 to 173 °C.

As to `COC(=O)C1=C(C)NC(C)=C(C(=O)OCCCCN(C)CCC(c2ccccc2)c2ccccc2)C1c1cccc([N+](=O)[O-])c1` (centres undefined), the melting point was in the range of 91 to 103 °C.

For the molecule `COc1cc2cc(/C=C/C#N)sc2cc1OC`, the melting point lay in the range of 154 to 158 °C.

In turn, `O=C1CCC(Nc2ncnc3c2ncn3C2OC(CO)C(O)C2O)N1` (centres undefined) displayed a melting point of 198 to 200 °C.

With `Nc1cc(-c2ccccc2)nn1-c1c(Cl)cc(C(F)(F)F)cc1Cl`, the melting point worked out at 142 °C.

The molecule `CCOC(=O)C1=C(CO)NC=C(C(=O)OC)C1c1ccccc1Cl` (centres undefined) registered a melting point of 187 to 188 °C.

In turn, `CCC(O)(CC)Cc1ccc(NC(=O)OCc2ccccc2)cc1` came in with a melting point of 99 to 100 °C.

`CC(C)(C)OC(=O)NC1Cc2ccc(NC(=O)c3ccccc3-c3ccc(C(F)(F)F)cc3)cc2C1` (centres undefined) showed a melting point of 198 to 201 °C.

The molecule `O[C@H](CCc1cccnc1)COc1ccc(-c2ccc(Cl)cc2)cc1` displayed a melting point of 117 to 118 °C.

As to `CCOC(=O)CSc1nc(Cl)cc(NCc2ccc(F)cc2)n1`, the melting point fell in the range of 70 to 75 °C.

With `CCC(CC)C(=O)N1CC(NC(=O)Nc2cccc(C(=O)O)c2)C(=O)N(CC(=O)c2ccccc2C)c2cc(C)ccc21` (centres undefined), the melting point lay within 244 to 246 °C.

In turn, `CC(F)(F)CC(Br)c1ccccc1S(N)(=O)=O` (centres undefined) had a melting point of 104 to 105 °C.

In turn, `CNC(=O)C1=CC(CF)(CF)Oc2ccc(Cl)cc21` came in with a melting point of 175 to 176 °C.
